Measured values published in patent US20230085307A1, “PYRIDAZINONE COMPOUND AND HERBICIDE” (NISSAN CHEMICAL CORPORATION, priority 2019, published 2023).

test system: velvetleaf; assay: Test Example 5: herbicidal effect by foliage application, plastic box (Table 20, symbol M); assay type: in vivo, velvetleaf (Abutilon theophrasti); settings: foliage application, 320 g/ha, evaluated three weeks after application
Method in brief: (§1)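 Sow seeds spot-wise in sterilized diluvial soil; cover with ~1.5 cm soil. Grow 14 days in greenhouse, 25° C. to 30° C. Spray foliage with emulsion diluted to predetermined amount. Rate effect after 3 weeks.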

Structure (SMILES)	herbicidal effect on M: velvetleaf (criteria 0-5)
Cc1nn(C)c(=O)c(-c2c(-c3ccc(SC(C)C)cc3)sc3ccc(F)cc23)c1O [2-252]	5 (Herbicidal rate of 90% or more (almost completely withered))

test system: oval-leafed pondweed; assay: Test Example 1: herbicidal activity, application before weed generation under submerged conditions (Table 16, symbol C); assay type: in vivo, oval-leafed pondweed (Monochoria vaginalis); settings: 320 g/ha applied herbicide
Method in brief: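 Submerged Wagner pots (alluvial soil, 4 cm water) sown with weed seeds and planted with 2.5-leaf rice seedlings; emulsifiable concentrate diluted in water applied to water surface on sowing day. Held in greenhouse at 25-30 °C; injury scored 0-5 by herbicidal rate after three weeks.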

Structure (SMILES)	Herbicidal effect on C: oval-leafed pondweed (grade 0-5)
Cc1nn(C)c(=O)c(-c2c(-c3ccc(SC(C)C)cc3)sc3ccc(F)cc23)c1O [2-252]	1 (Herbicidal rate of 5% or more and less than 20%)

test system: lambsquarters; assay: Test Example 4: herbicidal effect by soil treatment (Table 19, symbol O); assay type: in vivo, lambsquarters (Chenopodium album); settings: amount of applied herbicide 320 g/ha
Method in brief: (§2)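 Applied as a water-diluted emulsion, the compound was sprayed onto soil covering newly sown seeds. Evaluation came three weeks after application, in a greenhouse held at 25° C. to 30° C.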

Structure (SMILES)	herbicidal effect on O: lambsquarters
Cc1nn(C)c(=O)c(-c2c(-c3ccc(SC(C)C)cc3)sc3ccc(F)cc23)c1O [2-252]	4 (Herbicidal rate of 70% or more and less than 90%)

test system: blackgrass; assay: Test Example 4: herbicidal effect by soil treatment (Table 19, symbol J); assay type: in vivo, blackgrass (Alopecurus myosuroides); settings: amount of applied herbicide 320 g/ha
Method in brief: as §2

Structure (SMILES)	herbicidal effect on J: blackgrass
Cc1nn(C)c(=O)c(-c2c(-c3ccc(SC(C)C)cc3)sc3ccc(F)cc23)c1O [2-252]	0 (Herbicidal rate of 5% or less (almost no effect))

test system: chickweed; assay: Test Example 4: herbicidal effect by soil treatment (Table 19, symbol P); assay type: in vivo, common chickweed (Stellaria media); settings: amount of applied herbicide 320 g/ha
Method in brief: as §2

Structure (SMILES)	herbicidal effect on P: chickweed
Cc1nn(C)c(=O)c(-c2c(-c3ccc(SC(C)C)cc3)sc3ccc(F)cc23)c1O [2-252]	5 (Herbicidal rate of 90% or more (almost completely withered))

test system: velvetleaf; assay: Test Example 4: herbicidal effect by soil treatment (Table 19, symbol M); assay type: in vivo, velvetleaf (Abutilon theophrasti); settings: amount of applied herbicide 320 g/ha
Method in brief: as §2

Structure (SMILES)	herbicidal effect on M: velvetleaf
Cc1nn(C)c(=O)c(-c2c(-c3ccc(SC(C)C)cc3)sc3ccc(F)cc23)c1O [2-252]	2 (Herbicidal rate of 20% or more and less than 40%)

test system: Japanese bulrush; assay: Test Example 2: herbicidal activity, application during weed generation under submerged conditions (Table 17, symbol B); assay type: in vivo, Japanese bulrush (Schoenoplectus juncoides); settings: AAH 320 g/ha; application during weed generation, submerged conditions
Method in brief: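 In this pot test, flooded alluvial soil (water depth 4 cm) holds all three species sown as a mixture. Once seedlings have one to two leaves, the compound's emulsion, thinned with water to the intended dose, is poured on the water; grading follows after three weeks on the earlier criteria.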

Structure (SMILES)	herbicidal effect rating, B: Japanese bulrush
Cc1nn(C)c(=O)c(-c2c(-c3ccc(SC(C)C)cc3)sc3ccc(F)cc23)c1O [2-252]	3 (Herbicidal rate of 40% or more and less than 70%)

test system: green foxtail; assay: Test Example 4: herbicidal effect by soil treatment (Table 19, symbol G); assay type: in vivo, green foxtail (Setaria viridis); settings: amount of applied herbicide 320 g/ha
Method in brief: as §2

Structure (SMILES)	herbicidal effect on G: green foxtail
Cc1nn(C)c(=O)c(-c2c(-c3ccc(SC(C)C)cc3)sc3ccc(F)cc23)c1O [2-252]	1 (Herbicidal rate of 5% or more and less than 20%)

test system: southern crabgrass; assay: Test Example 5: herbicidal effect by foliage application, plastic box (Table 20, symbol F); assay type: in vivo, southern crabgrass (Digitaria ciliaris); settings: foliage application, 320 g/ha, evaluated three weeks after application
Method in brief: as §1

Structure (SMILES)	herbicidal effect on F: southern crabgrass (criteria 0-5)
Cc1nn(C)c(=O)c(-c2c(-c3ccc(SC(C)C)cc3)sc3ccc(F)cc23)c1O [2-252]	4 (Herbicidal rate of 70% or more and less than 90%)

test system: barnyard grass; assay: Test Example 4: herbicidal effect by soil treatment (Table 19, symbol H); assay type: in vivo, barnyard grass (Echinochloa crus-galli); settings: amount of applied herbicide 320 g/ha
Method in brief: as §2

Structure (SMILES)	herbicidal effect on H: barnyard grass
Cc1nn(C)c(=O)c(-c2c(-c3ccc(SC(C)C)cc3)sc3ccc(F)cc23)c1O [2-252]	3 (Herbicidal rate of 40% or more and less than 70%)

test system: persian speedwell; assay: Test Example 4: herbicidal effect by soil treatment (Table 19, symbol R); assay type: in vivo, Persian speedwell (Veronica persica); settings: amount of applied herbicide 320 g/ha
Method in brief: as §2

Structure (SMILES)	herbicidal effect on R: persian speedwell
Cc1nn(C)c(=O)c(-c2c(-c3ccc(SC(C)C)cc3)sc3ccc(F)cc23)c1O [2-252]	5 (Herbicidal rate of 90% or more (almost completely withered))

test system: chickweed; assay: Test Example 5: herbicidal effect by foliage application, plastic box (Table 20, symbol P); assay type: in vivo, common chickweed (Stellaria media); settings: foliage application, 320 g/ha, evaluated three weeks after application
Method in brief: as §1

Structure (SMILES)	herbicidal effect on P: chickweed (criteria 0-5)
Cc1nn(C)c(=O)c(-c2c(-c3ccc(SC(C)C)cc3)sc3ccc(F)cc23)c1O [2-252]	5 (Herbicidal rate of 90% or more (almost completely withered))

test system: lambsquarters; assay: Test Example 5: herbicidal effect by foliage application, plastic box (Table 20, symbol O); assay type: in vivo, lambsquarters (Chenopodium album); settings: foliage application, 320 g/ha, evaluated three weeks after application
Method in brief: as §1

Structure (SMILES)	herbicidal effect on O: lambsquarters (criteria 0-5)
Cc1nn(C)c(=O)c(-c2c(-c3ccc(SC(C)C)cc3)sc3ccc(F)cc23)c1O [2-252]	5 (Herbicidal rate of 90% or more (almost completely withered))

test system: persian speedwell; assay: Test Example 5: herbicidal effect by foliage application, plastic box (Table 20, symbol R); assay type: in vivo, Persian speedwell (Veronica persica); settings: foliage application, 320 g/ha, evaluated three weeks after application
Method in brief: as §1

Structure (SMILES)	herbicidal effect on R: persian speedwell (criteria 0-5)
Cc1nn(C)c(=O)c(-c2c(-c3ccc(SC(C)C)cc3)sc3ccc(F)cc23)c1O [2-252]	5 (Herbicidal rate of 90% or more (almost completely withered))

test system: windgrass; assay: Test Example 5: herbicidal effect by foliage application, plastic box (Table 20, symbol L); assay type: in vivo, windgrass (Apera spica-venti); settings: foliage application, 320 g/ha, evaluated three weeks after application
Method in brief: as §1

Structure (SMILES)	herbicidal effect on L: windgrass (criteria 0-5)
Cc1nn(C)c(=O)c(-c2c(-c3ccc(SC(C)C)cc3)sc3ccc(F)cc23)c1O [2-252]	5 (Herbicidal rate of 90% or more (almost completely withered))

test system: wild oat; assay: Test Example 4: herbicidal effect by soil treatment (Table 19, symbol I); assay type: in vivo, wild oat (Avena fatua); settings: amount of applied herbicide 320 g/ha
Method in brief: as §2

Structure (SMILES)	herbicidal effect on I: wild oat
Cc1nn(C)c(=O)c(-c2c(-c3ccc(SC(C)C)cc3)sc3ccc(F)cc23)c1O [2-252]	0 (Herbicidal rate of 5% or less (almost no effect))

test system: southern crabgrass; assay: Test Example 4: herbicidal effect by soil treatment (Table 19, symbol F); assay type: in vivo, southern crabgrass (Digitaria ciliaris); settings: amount of applied herbicide 320 g/ha
Method in brief: as §2

Structure (SMILES)	herbicidal effect on F: southern crabgrass
Cc1nn(C)c(=O)c(-c2c(-c3ccc(SC(C)C)cc3)sc3ccc(F)cc23)c1O [2-252]	2 (Herbicidal rate of 20% or more and less than 40%)
